Experimental data published in patent publication US20220041681A1 (MEDIMMUNE LIMITED, priority 2016, published 2022).

Test system: Healthy volunteer
Experiment: Phase 1 single-ascending dose study
Conditions: for TEAE: Abdominal distension / TEAE: Abdominal pain / TEAE: Application site erosion / TEAE: Arrhythmia / TEAE: Atrioventricular block second degree / TEAE: Cardiac Disorders / TEAE: Decreased appetite / TEAE: Diarrhea / TEAE: Dizziness / TEAE: Gastrointestinal Disorders / TEAE: Headache / TEAE: Immune System Disorders / TEAE: Injury associated with device / TEAE: Injury poisoning and procedural complications / TEAE: Metabolism and nutrition disorders / TEAE: Musculoskeletal and connective tissue disorders / TEAE: Musculoskeletal chest pain / TEAE: Nasopharyngitis / TEAE: Nausea / TEAE: Nervous system disorders / TEAE: Oropharyngeal pain / TEAE: Procedural dizziness / TEAE: Respiratory, thoracic and mediastinal disorders / TEAE: Seasonal allergy / TEAE: Subjects with at least one event / TEAE: Ventricular extrasystoles / TEAE: Vomiting: N = 6, subjects n (%)

## CCCCCCCCCCCCCCCC(=O)N[C@@H](CCC(=O)NCCCC[C@H](NC(=O)[C@H](CC(=O)O)NC(=O)[C@H](CO)NC(=O)C(NC(=O)[C@H](Cc1ccccc1)NC(=O)C(NC(=O)CNC(=O)[C@H](CCC(N)=O)NC(=O)[C@H](CO)NC(=O)[C@@H](N)Cc1cnc[nH]1)[C@@H](C)O)[C@@H](C)O)C(=O)N[C@@H](CO)C(=O)N[C@@H](CCC(=O)O)C(=O)N[C@@H](Cc1ccc(O)cc1)C(=O)N[C@@H](CC(C)C)C(=O)N[C@@H](CC(=O)O)C(=O)N[C@@H](CO)C(=O)N[C@@H](CCC(=O)O)C(=O)N[C@@H](CCCNC(=N)N)C(=O)N[C@@H](C)C(=O)N[C@@H](CCCNC(=N)N)C(=O)N[C@@H](CC(=O)O)C(=O)N[C@@H](Cc1ccccc1)C(=O)N[C@H](C(=O)N[C@@H](C)C(=O)N[C@@H](Cc1c[nH]c2ccccc12)C(=O)N[C@@H](CC(C)C)C(=O)N[C@@H](CCC(=O)O)C(=O)N[C@@H](C)C(=O)NCC(=O)NCC(=O)O)C(C)C)C(=O)O (stereo partly shown) [Peptide G933]
5 μg
  TEAE: Abdominal distension: 0
  TEAE: Abdominal pain: 0
  TEAE: Application site erosion: 0
  TEAE: Arrhythmia: 0
  TEAE: Atrioventricular block second degree: 0
  TEAE: Cardiac Disorders: 0
  TEAE: Decreased appetite: 0
  TEAE: Diarrhea: 0
  TEAE: Dizziness: 0
  TEAE: Gastrointestinal Disorders: 0
  TEAE: Headache: 1 (16.7%)
  TEAE: Immune System Disorders: 0
  TEAE: Injury associated with device: 0
  TEAE: Injury poisoning and procedural complications: 0
  TEAE: Metabolism and nutrition disorders: 0
  TEAE: Musculoskeletal and connective tissue disorders: 0
  TEAE: Musculoskeletal chest pain: 0
  TEAE: Nasopharyngitis: 1 (16.7%)
  TEAE: Nausea: 0
  TEAE: Nervous system disorders: 1 (16.7%)
  TEAE: Oropharyngeal pain: 0
  TEAE: Procedural dizziness: 0
  TEAE: Respiratory, thoracic and mediastinal disorders: 0
  TEAE: Seasonal allergy: 0
  TEAE: Subjects with at least one event: 2 (33.3%)
  TEAE: Ventricular extrasystoles: 0
  TEAE: Vomiting: 0
10 μg
  TEAE: Abdominal distension: 0
  TEAE: Abdominal pain: 1 (16.7%)
  TEAE: Application site erosion: 0
  TEAE: Arrhythmia: 0
  TEAE: Atrioventricular block second degree: 1 (16.7%)
  TEAE: Cardiac Disorders: 1 (16.7%)
  TEAE: Decreased appetite: 0
  TEAE: Diarrhea: 1 (16.7%)
  TEAE: Dizziness: 1 (16.7%)
  TEAE: Gastrointestinal Disorders: 1 (16.7%)
  TEAE: Headache: 0
  TEAE: Immune System Disorders: 0
  TEAE: Injury associated with device: 0
  TEAE: Injury poisoning and procedural complications: 0
  TEAE: Metabolism and nutrition disorders: 0
  TEAE: Musculoskeletal and connective tissue disorders: 0
  TEAE: Musculoskeletal chest pain: 0
  TEAE: Nasopharyngitis: 0
  TEAE: Nausea: 0
  TEAE: Nervous system disorders: 1 (16.7%)
  TEAE: Oropharyngeal pain: 0
  TEAE: Procedural dizziness: 0
  TEAE: Respiratory, thoracic and mediastinal disorders: 0
  TEAE: Seasonal allergy: 0
  TEAE: Subjects with at least one event: 3 (50.0%)
  TEAE: Ventricular extrasystoles: 0
  TEAE: Vomiting: 0
30 μg
  TEAE: Abdominal distension: 0
  TEAE: Abdominal pain: 0
  TEAE: Application site erosion: 1 (16.7%)
  TEAE: Arrhythmia: 0
  TEAE: Atrioventricular block second degree: 0
  TEAE: Cardiac Disorders: 0
  TEAE: Decreased appetite: 0
  TEAE: Diarrhea: 0
  TEAE: Dizziness: 1 (16.7%)
  TEAE: Gastrointestinal Disorders: 0
  TEAE: Headache: 1 (16.7%)
  TEAE: Immune System Disorders: 1 (16.7%)
  TEAE: Injury associated with device: 0
  TEAE: Injury poisoning and procedural complications: 1 (16.7%)
  TEAE: Metabolism and nutrition disorders: 0
  TEAE: Musculoskeletal and connective tissue disorders: 1 (16.7%)
  TEAE: Musculoskeletal chest pain: 1 (16.7%)
  TEAE: Nasopharyngitis: 0
  TEAE: Nausea: 0
  TEAE: Nervous system disorders: 1 (16.7%)
  TEAE: Oropharyngeal pain: 0
  TEAE: Procedural dizziness: 1 (16.7%)
  TEAE: Respiratory, thoracic and mediastinal disorders: 0
  TEAE: Seasonal allergy: 1 (16.7%)
  TEAE: Subjects with at least one event: 4 (66.7%)
  TEAE: Ventricular extrasystoles: 0
  TEAE: Vomiting: 0
100 μg dose, 1 subject
  vomiting episodes: 1 episode
100 μg
  TEAE: Abdominal distension: 0
  TEAE: Abdominal pain: 0
  TEAE: Application site erosion: 0
  TEAE: Arrhythmia: 1 (16.7%)
  TEAE: Atrioventricular block second degree: 0
  TEAE: Cardiac Disorders: 1 (16.7%)
  TEAE: Decreased appetite: 0
  TEAE: Diarrhea: 0
  TEAE: Dizziness: 0
  TEAE: Gastrointestinal Disorders: 1 (16.7%)
  TEAE: Headache: 1 (16.7%)
  TEAE: Immune System Disorders: 0
  TEAE: Injury associated with device: 0
  TEAE: Injury poisoning and procedural complications: 0
  TEAE: Metabolism and nutrition disorders: 0
  TEAE: Musculoskeletal and connective tissue disorders: 0
  TEAE: Musculoskeletal chest pain: 0
  TEAE: Nasopharyngitis: 0
  TEAE: Nausea: 1 (16.7%)
  TEAE: Nervous system disorders: 2 (33.3%)
  TEAE: Oropharyngeal pain: 0
  TEAE: Procedural dizziness: 0
  TEAE: Respiratory, thoracic and mediastinal disorders: 0
  TEAE: Seasonal allergy: 0
  TEAE: Ventricular extrasystoles: 0
  TEAE: Vomiting: 1 (16.7%)
150 μg dose, 4 subjects
  vomiting episodes: 9 episodes
150 μg
  TEAE: Abdominal distension: 2 (3.3%)
  TEAE: Abdominal pain: 0
  TEAE: Application site erosion: 0
  TEAE: Arrhythmia: 0
  TEAE: Atrioventricular block second degree: 0
  TEAE: Cardiac Disorders: 0
  TEAE: Decreased appetite: 2 (33.3%)
  TEAE: Diarrhea: 0
  TEAE: Dizziness: 2 (33.3%)
